{"source": "patent US20130303562A1", "about": "“CHEMICAL AND RNAI SUPPRESSORS OF NEUROTOXICITY IN HUNTINGTON'S DISEASE” (priority 2010, published 2013)", "key": {"[1]": {"test_system": "HD larvae (Elav^c155-GAL4; UAS-Htt-Q138/+)", "experiment": "In vivo rescue: viability of HD larvae after 5-day drug dosing in liquid culture", "parameters": "species or system Drosophila", "conditions": "larvae reared in liquid culture, 5-day dosing, compared to DMSO-treated controls", "experimental": "In vivo Rescue studies: For small molecule in vivo rescue studies, Elav^c155; UAS-Htt-Q138-mRFP^1, UAS-mCD8-GFP/+1st instar larvae were collected en-masse and dispensed into liquid yeast media (10 larvae/well) containing therapeutic agents at three different concentrations as described in the results (n=8 replicas/concentration). Cultures were reared at 21° C. and larval viability was assessed after 5 days and the mean number of living Htt138Q larvae (i.e. GFP^+, Htt138QmRFP^+, and mobile) was tabulated, and expressed as a percentage of total larvae/well. For genetic rescue studies with lkb1, two Htt138Q strains were utilized: a strong expressing line, UAS-Htt138QmRFP^1 which is pharate lethal when crossed to Elav^c155, and a weaker expressing line, UAS-Htt138QmRFP^2 which survives to adulthood and is viable for a number of weeks. Using the strong line, pharate lethality at 25° C. was calculated after lkb1 (lkb1^4B1-11 and lkb1^4A4-2 alleles) was introduced into an Elav^c155, UAS-Htt/+background. Lkb1^4B1-11 is a premature truncation allele (Q98>Stop), and lkb1^4A4-2 is an EMS null allele (589 b.p. deletion removing 150 b.p. of the 5′ UTR, the start codon and the beginning of the open reading frame). For Top1 in vivo analysis, Elav^c155, Top^112 recombinants were generated and crossed to UAS-Htt138QmRFP^1.\nTo further examine the RNAi/small molecule screen hits, we assayed in vivo efficacy by testing their ability to rescue lethality in our Drosophila HD model. […] Specific inhibitors of Lkb1 were not available for in vivo testing."}, "PC12 cells": {"test_system": "PC12 cells", "conditions": "cited from earlier work"}, "gap junction": {"test_system": "gap junction", "conditions": "cited from earlier work"}}, "data": [{"smiles": "CC1(C)[C@@H](O)CC[C@]2(C)[C@H]3C(=O)C=C4[C@@H]5C[C@@](C)(C(=O)O)CC[C@]5(C)CC[C@@]4(C)[C@]3(C)CC[C@@H]12", "note": "[18β-Glycyrrhetinic acid]", "values": [{"measurement": "Viability of Htt-Q138 expressing larvae / rescue of Htt-Q138 lethality", "setting": "[1]", "result": "rescue HD toxicity in vivo"}, {"measurement": "Viability of Htt-Q138 expressing larvae / rescue of Htt-Q138 lethality", "setting": "[1]; listed as 180-Glycyrrhetinic acid", "result": "almost as efficacious as Rapamycin"}, {"measurement": "Neurotoxicity in PC12 cellular stress model", "setting": "PC12 cells", "result": "suppresses neurotoxicity"}, {"measurement": "Gap junction activity", "setting": "gap junction", "result": "block gap junction activity"}]}]}
